Biological target: USP7 (Homo sapiens, UniProt Q93009)
Assay: biochemical
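Note: fluorescence intensity readout of USP7 enzymatic activity, reaction incubated 90 min at room temperature.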

Sequence of USP7 (Q93009 whole entry): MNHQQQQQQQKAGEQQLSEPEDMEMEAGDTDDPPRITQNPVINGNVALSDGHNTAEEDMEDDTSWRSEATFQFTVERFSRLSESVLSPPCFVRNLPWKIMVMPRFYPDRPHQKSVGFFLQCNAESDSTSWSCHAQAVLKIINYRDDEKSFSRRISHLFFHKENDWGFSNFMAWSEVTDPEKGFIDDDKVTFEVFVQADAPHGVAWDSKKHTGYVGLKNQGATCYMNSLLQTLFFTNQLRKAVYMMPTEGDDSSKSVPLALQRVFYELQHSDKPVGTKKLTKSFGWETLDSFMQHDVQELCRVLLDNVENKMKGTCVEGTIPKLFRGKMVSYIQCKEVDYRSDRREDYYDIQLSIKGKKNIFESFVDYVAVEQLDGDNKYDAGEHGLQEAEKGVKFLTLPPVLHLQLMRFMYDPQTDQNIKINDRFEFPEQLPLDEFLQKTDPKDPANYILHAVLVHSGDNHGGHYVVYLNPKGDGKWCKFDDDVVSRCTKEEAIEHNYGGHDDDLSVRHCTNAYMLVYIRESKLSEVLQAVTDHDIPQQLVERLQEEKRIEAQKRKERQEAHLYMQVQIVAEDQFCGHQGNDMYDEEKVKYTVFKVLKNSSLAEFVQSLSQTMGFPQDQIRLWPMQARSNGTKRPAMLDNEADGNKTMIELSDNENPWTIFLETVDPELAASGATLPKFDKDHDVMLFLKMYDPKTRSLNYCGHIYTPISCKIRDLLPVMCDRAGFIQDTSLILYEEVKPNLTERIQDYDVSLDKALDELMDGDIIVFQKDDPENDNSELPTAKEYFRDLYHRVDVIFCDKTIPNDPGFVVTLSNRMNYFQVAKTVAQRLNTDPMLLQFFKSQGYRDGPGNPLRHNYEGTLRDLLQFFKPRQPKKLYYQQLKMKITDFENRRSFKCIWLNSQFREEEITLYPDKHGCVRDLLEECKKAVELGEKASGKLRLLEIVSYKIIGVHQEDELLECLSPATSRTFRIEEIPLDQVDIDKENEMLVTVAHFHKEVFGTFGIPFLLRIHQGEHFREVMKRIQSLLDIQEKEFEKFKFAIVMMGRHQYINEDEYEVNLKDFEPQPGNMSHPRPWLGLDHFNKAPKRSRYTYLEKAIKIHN

SMILES | IC50
N#Cc1cc(-c2ccnc3cc(Cn4ncc(C5(C(F)(F)F)CC5)cc4=O)sc23)c2c(c1)C1CC1CN2[C@@H]1CN[C@@H](CO)C1 (stereo in doubt) [Example 194b, (1aS,7bR)-3-((3S,5R)-5-(hydroxymethyl)pyrrolidin-3-yl)-4-(2-((6-oxo-4-(1-(trifluoromethyl)cyclopropyl)pyridazin-1(6H)-yl)methyl)thieno[3,2-b]pyridin-7-yl)-1a,2,3,7b-tetrahydro-1H-cyclopropa[c]quinoline-6-carbonitrile] | 10 to 100 nM
C[C@@H](c1cc2nccc(-c3cc(C#N)cc4c3N([C@@H]3CCNC3)CCC4)c2s1)N1C(=O)CCC1=O (single isomer, unassigned) [Example 112d] | > 1000 nM
O=c1ccn(C[C@H](O)C(F)(F)F)c(=O)n1Cc1cc2nccc(-c3cc(Cl)cc4c3N([C@H]3CCNC3)CCC4)c2s1 [Example 64] | < 10 nM
Cc1cnn(Cc2cc3nccc(-c4cc(C#N)cc5c4N(C4CNC6(CCC6)C4)CCC5)c3s2)c(=O)c1 (single isomer, unassigned) [Example 164b] | 101 to 1000 nM
N[C@@H]1CCN(C2CCOc3cc(Cl)cc(-c4ccnc5cc(CN6C(=O)CCC6=O)sc45)c32)C1 (stereo in doubt) [Example 230b, 1-((7-((R)-4-((R)-3-aminopyrrolidin-1-yl)-7-chlorochroman-5-yl)thieno[3,2-b]pyridin-2-yl)methyl)pyrrolidine-2,5-dione] | > 1000 nM
O=C1CCC(=O)N1Cc1cc2nccc(-c3cc(Cl)cc4c3N([C@@H]3CCC5(CCCN5)C3)CCC4)c2s1 (single isomer, unassigned) [Example 179a] | 10 to 100 nM
O=C1CCC(=O)N1Cc1cc2ncnc(-c3cc(Cl)cc4c3N(C3CNC5(CCC5)C3)CCC4)c2s1 (single isomer, unassigned) [Example 161b] | 101 to 1000 nM
O=C1CCC(=O)N1Cc1cc2ncnc(-c3cc(Cl)cc4c3N(C3CNC5(CCC5)C3)CCC4)c2s1 (single isomer, unassigned) [Example 161a] | < 10 nM
O=C1COC(=O)N1Cc1cc2nccc(-c3cc(Cl)cc4c3N([C@H]3CCNC3)CCC4)c2s1 [Example 73, (S)-3-((7-(6-chloro-1-(pyrrolidin-3-yl)-1,2,3,4-tetrahydroquinolin-8-yl)thieno[3,2-b]pyridin-2-yl)methyl)oxazolidine-2,4-dione] | < 10 nM
C[C@@H](c1cc2nccc(-c3cc(C#N)cc4c3N([C@H]3CCNC3)CCC4)c2s1)N1C(=O)CCC1=O (single isomer, unassigned) [Example 112b] | 101 to 1000 nM
O=C1CCC(=O)N1Cc1cc2nccc(-c3cc(Cl)cc4c3N([C@H]3CO[C@H](CO)C3)CCO4)c2s1 (single isomer, unassigned) [Example 227b] | 101 to 1000 nM
C[C@@]1(C(=O)O)C[C@H](N2CCCc3cc(Cl)cc(-c4ccnc5cc(CN6C(=O)CCC6=O)sc45)c32)CN1 [Example 205, (2S,4S)-4-(6-chloro-8-(2-((2,5-dioxopyrrolidin-1-yl)methyl)thieno[3,2-b]pyridin-7-yl)-3,4-dihydroquinolin-1(2H)-yl)-2-methylpyrrolidine-2-carboxylic acid] | < 10 nM
CC1(C)C[C@H](N2CCOc3cc(C#N)cc(-c4ccnc5cc(Cn6ncc(C7CC7)cc6=O)sc45)c32)CN1 [Example 135, (S)-5-(2-((4-cyclopropyl-6-oxopyridazin-1(6H)-yl)methyl)thieno[3,2-b]pyridin-7-yl)-4-(5,5-dimethylpyrrolidin-3-yl)-3,4-dihydro-2H-benzo[b][1,4]oxazine-7-carbonitrile] | < 10 nM
CC1(C)C[C@H](N2CCCc3cc(C#N)cc(-c4ccnc5cc(Cn6c(=O)ccn(CC(F)(F)F)c6=O)sc45)c32)CN1 [Example 125, (S)-1-(5,5-dimethylpyrrolidin-3-yl)-8-(2-((2,6-dioxo-3-(2,2,2-trifluoroethyl)-2,3-dihydropyrimidin-1(6H)-yl)methyl)thieno[3,2-b]pyridin-7-yl)-1,2,3,4-tetrahydroquinoline-6-carbonitrile] | < 10 nM
N#Cc1cc(-c2ccnc3cc(Cn4ncc(C5(C(F)(F)F)CC5)cc4=O)sc23)c2c(c1)[C@@H]1C[C@@H]1CN2[C@@H]1CN[C@@H](CO)C1 [Example 194a, (1aS,7bR)-3-((3S,5R)-5-(hydroxymethyl)pyrrolidin-3-yl)-4-(2-((6-oxo-4-(1-(trifluoromethyl)cyclopropyl)pyridazin-1(6H)-yl)methyl)thieno[3,2-b]pyridin-7-yl)-1a,2,3,7b-tetrahydro-1H-cyclopropa[c]quinoline-6-carbonitrile] | < 10 nM
O=C1CCC(=O)N1Cc1cc2nccc(-c3cc(Cl)cc4c3N([C@@H]3CNC[C@H]3F)CCC4)c2s1 (single isomer, unassigned) [Example 96b] | 10 to 100 nM
N#Cc1cc2c(c(-c3ccnc4cc(Cn5c(=O)ccn(C6CC(F)(F)C6)c5=O)sc34)c1)N([C@@H]1CN[C@@H](CO)C1)CCC2 [Example 191, 8-(2-((3-(3,3-difluorocyclobutyl)-2,6-dioxo-2,3-dihydropyrimidin-1(6H)-yl)methyl)thieno[3,2-b]pyridin-7-yl)-1-((3S,5R)-5-(hydroxymethyl)pyrrolidin-3-yl)-1,2,3,4-tetrahydroquinoline-6-carbonitrile] | < 10 nM

SMILES | IC50
O=C1CCC(=O)N1Cc1cc2nccc(-c3cc(Cl)cc4c3N([C@@H]3CN(C[C@@H](O)C(F)(F)F)C5(CCC5)C3)CCC4)c2s1 (single isomer, unassigned) [Example 143b] | 101 to 1000 nM
Cc1cnn(Cc2cc3nccc(-c4cc(Cl)cc5c4N([C@@H]4CNC6(CCC6)C4)CCC5)c3s2)c(=O)c1 [Example 153, (S)-2-((7-(6-chloro-1-(5-azaspiro[3.4]octan-7-yl)-1,2,3,4-tetrahydroquinolin-8-yl)thieno[3,2-b]pyridin-2-yl)methyl)-5-methylpyridazin-3(2H)-one] | < 10 nM
CC1(C)OC(=O)C(Cc2cc3nccc(-c4cc(Cl)cc5c4N([C@@H]4CNC6(CCC6)C4)CCC5)c3s2)C(=O)O1 [Example 156, (S)-5-((7-(6-chloro-1-(5-azaspiro[3.4]octan-7-yl)-1,2,3,4-tetrahydroquinolin-8-yl)thieno[3,2-b]pyridin-2-yl)methyl)-2,2-dimethyl-1,3-dioxane-4,6-dione] | 101 to 1000 nM
O=c1cc(Oc2ccc(F)cc2)cnn1Cc1cc2nccc(-c3cc(Cl)cc4c3N(C3CNC3)CCC4)c2s1 [Example 36, 2-((7-(1-(azetidin-3-yl)-6-chloro-1,2,3,4-tetrahydroquinolin-8-yl)thieno[3,2-b]pyridin-2-yl)methyl)-5-(4-fluorophenoxy)pyridazin-3(2H)-one] | 10 to 100 nM
COC(=O)[C@]1(C)C[C@H](N2CCCc3cc(Cl)cc(-c4ccnc5cc(CN6C(=O)CCC6=O)sc45)c32)CN1 (single isomer, unassigned) [Example 204] | 101 to 1000 nM
C[C@]1(CO)C[C@H](N2CCOc3cc(C#N)cc(-c4ccnc5cc(Cn6ncc(C7(C(F)(F)F)CC7)cc6=O)sc45)c32)CN1 [Example 222, 4-[(3S,5R)-5-(hydroxymethyl)-5-methyl-pyrrolidin-3-yl]-5-[2-[[6-oxo-4-[1-(trifluoromethyl)cyclopropyl]pyridazin-1-yl]methyl]thieno[3,2-b]pyridin-7-yl]-2,3-dihydro-1,4-benzoxazine-7-carbonitrile] | < 10 nM
N#Cc1cc(-c2ccnc3cc(Cn4c(=O)ccn(CC(F)F)c4=O)sc23)c2c(c1)[C@@H]1C[C@@H]1CN2[C@@H]1CCNC1 [Example 117b, (1aS,7bR)-4-(2-((3-(2,2-difluoroethyl)-2,6-dioxo-2,3-dihydropyrimidin-1(6H)-yl)methyl)thieno[3,2-b]pyridin-7-yl)-3-((R)-pyrrolidin-3-yl)-1a,2,3,7b-tetrahydro-1H-cyclopropa[c]quinoline-6-carbonitrile] | 10 to 100 nM
O=C1CCC(=O)N1Cc1cc2nccc(-c3cc(Cl)cc4c3N(C3CNC3)C[C@H]3C[C@@H]43)c2s1 (single isomer, unassigned) [Example 43b] | 10 to 100 nM
CN1CCC(CN2CCCc3cc(Cl)cc(-c4ccnc5cc(CN6C(=O)CCC6=O)sc45)c32)CC1 [Example 50, 1-[[7-[6-chloro-1-[(1-methyl-4-piperidyl)methyl]-3,4-dihydro-2H-quinolin-8-yl]thieno[3,2-b]pyridin-2-yl]methyl]pyrrolidine-2,5-dione] | 10 to 100 nM
O=C1CCC(=O)N1Cc1cc2nccc(-c3cc(Cl)cc4c3N([C@H]3CCCNC3)CCC4)c2s1 (single isomer, unassigned) [Example 51a] | < 10 nM
O=C1CCC(=O)N1Cc1cc2ncc(F)c(-c3cc(Cl)cc4c3N([C@H]3CCNC3)CCC4)c2s1 [Example 109, 1-((7-(6-chloro-1-((S)-pyrrolidin-3-yl)-1,2,3,4-tetrahydroquinolin-8-yl)-6-fluorothieno[3,2-b]pyridin-2-yl)methyl)pyrrolidine-2,5-dione] | < 10 nM
O=C1CCC(=O)N1Cc1cc2nccc(-c3cc(C(F)(F)F)cc4c3N(C3CNC5(CCC5)C3)CCO4)c2s1 (single isomer, unassigned) [Example 175a] | 101 to 1000 nM
O=C1CCC(=O)N1Cc1cc2nccc(-c3cc(C(F)(F)F)cc4c3N(C3CNC3)CCC4)c2s1 [Example 39] | 10 to 100 nM
O=C1COc2cc(Cl)cc(-c3ccnc4cc(Cn5ncc(C6CC6)cc5=O)sc34)c2N1[C@@H]1CNC2(CCC2)C1 [Example 174, (S)-7-chloro-5-(2-((4-cyclopropyl-6-oxopyridazin-1(6H)-yl)methyl)thieno[3,2-b]pyridin-7-yl)-4-(5-azaspiro[3.4]octan-7-yl)-2H-benzo[b][1,4]oxazin-3(4H)-one] | < 10 nM
O=C1CCC(=O)N1Cc1sc2c(-c3cc(Cl)cc4c3N(C3CCNC3)CCC4)ccnc2c1F (single isomer, unassigned) [Example 108b] | 10 to 100 nM
O=C1CCC(=O)N1Cc1cc2nccc(-c3cc(Cl)cc4c3N(C3CN(CC(F)F)C3)CCC4)c2s1 [Example 11, 1-((7-(6-chloro-1-(1-(2,2-difluoroethyl)azetidin-3-yl)-1,2,3,4-tetrahydroquinolin-8-yl)thieno[3,2-b]pyridin-2-yl)methyl)pyrrolidine-2,5-dione] | 101 to 1000 nM

Source: patent publication US20240158412A1 (Faxian Therapeutics, LLC, priority 2021, published 2024)
